{"source": "PubChem BioAssay AID1996"}
{"details": "buffer; pH 7.4; 200.0 µM", "units": {"solubility kinetic": "µg/mL"}}
{"smiles": "OCCN1CCN(CC#CCC(c2ccccc2)c2ccccc2)CC1", "solubility kinetic": "> 52.3"}
{"smiles": "O=C(Nc1ccc(CN2CCOCC2)cc1)c1ccc(Cl)cc1Cl", "solubility kinetic": 19.9}
{"smiles": "CCC(/C=N/NC(=O)c1ccccc1F)CC", "solubility kinetic": "> 35.4"}
{"smiles": "CCOc1ncccc1C(=O)Nc1ccc(F)c(F)c1", "solubility kinetic": 6.7}
{"smiles": "CCN(CC)C(=O)COc1ccc2c(-c3ccccc3)cc(=O)oc2c1", "solubility kinetic": 40.7}
{"smiles": "Cc1ccc(C(=O)CSc2nnc3n2CCCCC3)s1", "solubility kinetic": "> 46.1"}
{"smiles": "CC(Oc1ccc(F)cc1)C(O)CCN(C)C", "note": "(stereo not given)", "solubility kinetic": 25.8}
{"smiles": "Cc1c(C)n(C)c2ccc(C(=O)NCCN3CCOCC3)cc12", "solubility kinetic": "> 47.3"}
{"smiles": "O=c1c2ccccc2nc(/C=C/c2ccc(Cl)cc2)n1CCO", "solubility kinetic": 1.3}
{"smiles": "CC(=O)Nc1ccc(-c2csc(Nc3ccccn3)n2)cc1", "solubility kinetic": 0.5}
{"smiles": "Cc1ccc2nc(-c3cc(-c4ccccc4)no3)cn2c1", "solubility kinetic": 0.3}
{"smiles": "CCOc1ccc(C(=O)NCCN2CCOCC2)cc1", "solubility kinetic": "> 41.8"}
{"smiles": "Cc1ccccc1C(=O)NNC(=O)c1cccn1C", "solubility kinetic": "> 38.6"}
{"smiles": "CCCSc1ccc2nc(NC(=O)OC)[nH]c2c1", "solubility kinetic": 1.4}
{"smiles": "CS(=O)(=O)N1CCN(Cc2ccc([N+](=O)[O-])cc2)CC1", "solubility kinetic": "> 44.9"}
{"smiles": "CC(=O)Nc1cccc(NC(=O)CCCC2CCCCC2)c1", "solubility kinetic": 3}
{"smiles": "CC1CCCN(C(=O)CCCNC(=O)c2ccc(Cl)cc2)C1", "note": "(stereo not given)", "solubility kinetic": "> 48.4"}
{"smiles": "Cc1nc(C)c(Oc2ccc(Cl)cc2Cl)c(=O)[nH]1", "solubility kinetic": 6.9}
{"smiles": "O=S(=O)(c1ccc(-c2ccccn2)s1)N1CCC2(CC1)OCCO2", "solubility kinetic": 1.5}
{"smiles": "Cc1ccc(CONC(=O)c2ccc(Cl)cc2)cc1", "solubility kinetic": 2}
{"smiles": "NS(=O)(=O)c1ccc(Sc2ccc3c(c2)CCC3)nc1", "solubility kinetic": 2.5}
{"smiles": "CCSC1=C(C#N)C(c2ccc(C)o2)CC(=O)N1", "note": "(stereo not given)", "solubility kinetic": "> 39.3"}
{"smiles": "Nc1nc(NCCOCCO)nc(NCc2ccccc2)c1[N+](=O)[O-]", "solubility kinetic": "> 52.3"}
{"smiles": "O=S(=O)(NC1CCCCCCC1)c1ccccc1F", "solubility kinetic": 42.5}
{"smiles": "OCC1(Cc2ccccc2)CCCN(Cc2c[nH]c3ccccc23)C1", "note": "(stereo not given)", "solubility kinetic": 36}
{"smiles": "CSC1=NCCN1C(=O)Cc1cccc2ccccc12", "solubility kinetic": 20.4}
{"smiles": "CC1CC(CCN)(c2ccccc2)C(C)CN1C.Cl", "note": "(stereo not given)", "solubility kinetic": "> 47.9"}
{"smiles": "CC(C)NC(=O)C1=NN(c2ccccc2)C(=O)CC1", "solubility kinetic": "> 38.9"}
{"smiles": "CC(C)C1(CCNC(=O)c2cccs2)CCOC(C)(C)C1", "note": "(stereo not given)", "solubility kinetic": 42}
{"smiles": "Cc1ccccc1C(=O)OCC(=O)Nc1cccc(S(=O)(=O)NC2=NCCC2)c1", "solubility kinetic": "> 62.3"}
{"smiles": "O=C(COC(=O)c1ccccc1O)NC1CCCc2ccccc21", "note": "(stereo not given)", "solubility kinetic": 4.6}
{"smiles": "Cn1c(N)c(C(=O)COC(=O)Cc2cccs2)c(=O)n(C)c1=O", "solubility kinetic": "> 50.6"}
{"smiles": "CC(=O)Nc1ccc(NC(=O)N(c2ccccc2)c2ccccc2)cc1", "solubility kinetic": 6.4}
{"smiles": "CN(CC(=O)Nc1ccc(F)cc1)C(=O)Cc1ccsc1", "solubility kinetic": "> 46"}
{"smiles": "Cc1ccc(S(=O)(=O)N2CCC(C(=O)NCC3CCCCC3)CC2)cc1", "solubility kinetic": 1.6}
{"smiles": "Cc1ccc(S(=O)(=O)NCCNC(=O)c2ccc(C)nc2)cc1", "solubility kinetic": "> 50"}
{"smiles": "Cn1cc(C(=O)OCC(=O)NC2(C#N)CCCC2)c2ccccc21", "solubility kinetic": "> 48.8"}
{"smiles": "CC(C)(C)NC(=O)NCCc1ccccc1", "solubility kinetic": 30}
{"smiles": "CCCNC(=S)N1CCC(Cc2ccccc2)CC1", "solubility kinetic": 28.3}
{"smiles": "COC(=O)[C@H](CCSC)NC(=O)Nc1cccc(Br)c1", "solubility kinetic": "> 54.2"}
{"smiles": "CC(C)=C(NC(=O)c1ccccc1)C(=O)NCc1ccccc1", "solubility kinetic": "> 46.3"}
{"smiles": "CC(SCc1ccccc1)C(=O)Nc1ccccc1", "note": "(stereo not given)", "solubility kinetic": 32.1}
{"smiles": "CCCN(CCC)CC(O)Cn1c2ccccc2c2ccccc21", "note": "(stereo not given)", "solubility kinetic": 12.5}
{"smiles": "CC1CCCC(C)N1C(=O)COC(=O)CCC(=O)c1ccc(F)cc1", "note": "(stereo not given)", "solubility kinetic": "> 52.4"}
{"smiles": "Cc1ccc(SCC(=O)OCC(=O)Nc2ccc3[nH]c(=O)[nH]c3c2)cc1C", "solubility kinetic": 5.8}
{"smiles": "CN(C(=O)c1cc(-c2ccccc2)on1)C1CCCCC1", "solubility kinetic": 9.7}
{"smiles": "Cc1c(C)n2c3c(cccc13)CC2", "solubility kinetic": 0.4}
{"smiles": "C/C(=C\\c1cccc(Cl)c1Cl)C(=O)c1c(C)cc(C)[nH]c1=O", "solubility kinetic": 3.5}
{"smiles": "CSc1nc(C)nc(N/C=C(\\C#N)S(=O)(=O)c2ccccc2Cl)n1", "solubility kinetic": 15.6}
{"smiles": "CCCCc1nc2cc(C(=O)N3CCC(O)CC3)ccc2o1", "solubility kinetic": "> 45.4"}
{"smiles": "Cc1ccc(C2CC(=O)C=C(NCc3ccccc3)C2)cc1", "note": "(stereo not given)", "solubility kinetic": 12.7}
{"smiles": "Cc1cccc(NC(=O)CSc2nc3ccccc3c(=O)n2CC2CCCO2)c1", "note": "(stereo not given)", "solubility kinetic": 4.2}
{"smiles": "Cn1c(C(=O)N2CCN(c3ccccn3)CC2)cc2ccccc21", "solubility kinetic": 43.8}
{"smiles": "O=S(=O)(c1ccc2ccccc2c1)N1CCN(c2ccc(O)cc2)CC1", "solubility kinetic": 4.6}
{"smiles": "COC(=O)c1c(C)[nH]c(C(=O)C(C)OC(=O)C2CC2)c1C", "note": "(stereo not given)", "solubility kinetic": 39.7}
{"smiles": "COc1ccc(-n2c(C)ccc2-c2ccccc2)cn1", "solubility kinetic": 5.9}
{"smiles": "CC(C#N)Sc1nnc(-c2ccccc2F)n1C1CC1", "note": "(stereo not given)", "solubility kinetic": "> 43.3"}
{"smiles": "CNC(=S)Nc1ccc([N+](=O)[O-])cc1", "solubility kinetic": "> 31.7"}
{"smiles": "O=C(c1ccc(Cl)cc1Cl)N1CCSCC1", "solubility kinetic": "> 41.4"}
{"smiles": "N#Cc1c(Nc2ccccc2Cl)s[nH]c1=O", "solubility kinetic": "> 37.8"}
